Measurements: patent US20080287299A1, “Use of Imidazole and/or Triazole Derivatives for Combating Plant Pests; as Well as Method for Controlling Diseases/Insects/Mites/Nematodes and Weeds, Particularly Foliar and/or Soil Diseases” (priority 2005, published 2008)

How the values were obtained:
Phakopsora pachyrhizi [1] = assay: Greenhouse soybean rust test, plants at V6 stage, evaluated every 5 days; assay type: in vivo; conditions: for SEVERITY OF RUST (% IFA) 5 DAT / SEVERITY OF RUST (% IFA) 10 DAT / SEVERITY OF RUST (% IFA) 15 DAT: soybean
Source text: Recent tests carried out in greenhouses the laboratory of FMC Quimica do Brasil Ltda. in Uberaba, MG, Brazil, show the highly fungicidal effect of said specific imidazole and/or triazole derivatives in combating diseases of plants, particularly against the attack by the fungus Phakopsora pachyrhizi on soybeans, as described hereinafter. […]
(§1) Equipment: a manual sprayer commonly used in agriculture with 2-liter capacity.
Dosages: 50 to 500 grams per hectare of the active compound Fluconazole per liter diluted in water.
Evaluations of the Effectiveness of the Product: The evaluations were made every 5 days after application of the product, in a total of 4 evaluations. As an evaluation parameter one utilized the severity of the disease (percentage of foliar area attacked by rust) according to the diagrammatic scale of the EMBRAPA (FIG. 1). […]
Dosages: 50 to 500 grams per hectare of the active compound Itraconazole per liter diluted in water.

Phakopsora pachyrhizi [2] = assay: Greenhouse soybean rust test, plants at V5 stage, evaluated every 7 days; assay type: in vivo; conditions: for SEVERITY OF RUST (% IFA) 7 DAT / SEVERITY OF RUST (% IFA) 14 DAT / SEVERITY OF RUST (% IFA) 21 DAT / SEVERITY OF RUST (% IFA) 28 DAT: soybean; for effective in controlling soybean rust: from 50 grams of active ingredient per hectare
Source text: Recent tests carried out in greenhouses the laboratory of FMC Quimica do Brasil Ltda. in Uberaba, MG, Brazil, show the highly fungicidal effect of said specific imidazole and/or triazole derivatives in combating diseases of plants, particularly against the attack by the fungus Phakopsora pachyrhizi on soybeans, as described hereinafter.
Experimental Outline Experimental Outline: entirely made with five repetitions, two plants per repetition, totaling 10 plants.
a) Preventive Mode: 30 days after plantation of the soybeans in plastic 2-liter pots and with corresponding volumes of soil, the soybean plants were at the V5 stage with six expanded folioles. At this moment, the compounds were sprayed and then, 48 hours afterwards, inoculation of the rust was effected. To effect the inoculation, one prepared a suspension of Phakopsora uredospores at the concentration of 2×10^4 spores/milliliters.
b) Healing mode: 30 days after plantation of the soybeans in 2-liter plastic pots and with a corresponding volume of soil, the soybean plants were at the V5 stage with six expanded folioles. At this moment, one effected the inoculation of the rust and then, 48 hours afterwards, the compounds were sprayed. To effect the inoculation, one prepared a suspension of Phakopsora uredospores at the concentration of 2×10^4 spores/milliliters.
as §1
Dosages: 50 to 300 grams per hectare of the active compound Itraconazole per liter diluted in water.
Evaluations of the Effectiveness of the Product: The evaluations were made every 7 days after application of the product, in a total of 4 evaluations. As an evaluation parameter one utilized the severity of the disease (percentage of foliar area attacked by rust) according to FIG. 1).
Dosages: 50 to 300 grams per hectare of the active compound Voriconazole per liter diluted in water.

## CCC(C)n1ncn(-c2ccc(N3CCN(c4ccc(OC[C@H]5CO[C@](Cn6cncn6)(c6ccc(Cl)cc6Cl)O5)cc4)CC3)cc2)c1=O (mixture of isomers) [Itraconazole, 4-[4-[4-[4-[[2-(2,4-dichlorophenyl)-2-(1H-1,2,4-triazol-1-ylmethyl)-1,3-dioxolan-4-yl]methoxy]phenyl]-1-pipera-zinyl]phenyl]-2,4-dihydro-2-(1-methylpropyl) 3H-1,2,4-triazol-3-one]
Phakopsora pachyrhizi [1]; Table 3: 50 g ac/ha
  SEVERITY OF RUST (% IFA) 5 DAT: 6 % IFA
  SEVERITY OF RUST (% IFA) 10 DAT: 12 % IFA
  SEVERITY OF RUST (% IFA) 15 DAT: 11 % IFA
Phakopsora pachyrhizi [1]; Table 3: 100 g ac/ha
  SEVERITY OF RUST (% IFA) 5 DAT: 5 % IFA
  SEVERITY OF RUST (% IFA) 10 DAT: 13 % IFA
  SEVERITY OF RUST (% IFA) 15 DAT: 10 % IFA
Phakopsora pachyrhizi [1]; Table 3: 150 g ac/ha
  SEVERITY OF RUST (% IFA) 5 DAT: 5 % IFA
  SEVERITY OF RUST (% IFA) 10 DAT: 13 % IFA
  SEVERITY OF RUST (% IFA) 15 DAT: 10 % IFA
Phakopsora pachyrhizi [1]; Table 3: 250 g ac/ha
  SEVERITY OF RUST (% IFA) 5 DAT: 3 % IFA
  SEVERITY OF RUST (% IFA) 10 DAT: 14 % IFA
  SEVERITY OF RUST (% IFA) 15 DAT: 10 % IFA
Phakopsora pachyrhizi [1]; Table 3: 500 g ac/ha
  SEVERITY OF RUST (% IFA) 5 DAT: 0 % IFA
  SEVERITY OF RUST (% IFA) 10 DAT: 10 % IFA
  SEVERITY OF RUST (% IFA) 15 DAT: 0 % IFA
Phakopsora pachyrhizi [1]; from 50 grams of active ingredient per hectare
  effective in controlling soybean rust: effective in controlling soybean rust

## C[C@@H](c1ncncc1F)[C@](O)(Cn1cncn1)c1ccc(F)cc1F (relative stereo) [Voriconazole, alpha-(2,4-difluorophenyll)-5-fluor-beta-methyl-alpha-(1H-1,2,4-triazol-1-yllmethyl)-(R—(R*,S*))-4-pirimidinetanole]
Phakopsora pachyrhizi [2]; Table 5: 50 g ac/ha
  SEVERITY OF RUST (% IFA) 7 DAT: 8 % IFA
  SEVERITY OF RUST (% IFA) 14 DAT: 10 % IFA
  SEVERITY OF RUST (% IFA) 21 DAT: 10 % IFA
  SEVERITY OF RUST (% IFA) 28 DAT: 13 % IFA
Phakopsora pachyrhizi [2]; Table 5: 100 g ac/ha
  SEVERITY OF RUST (% IFA) 7 DAT: 8 % IFA
  SEVERITY OF RUST (% IFA) 14 DAT: 8 % IFA
  SEVERITY OF RUST (% IFA) 21 DAT: 11 % IFA
  SEVERITY OF RUST (% IFA) 28 DAT: 18 % IFA
Phakopsora pachyrhizi [2]; Table 5: 150 g ac/ha
  SEVERITY OF RUST (% IFA) 7 DAT: 8 % IFA
  SEVERITY OF RUST (% IFA) 14 DAT: 8 % IFA
  SEVERITY OF RUST (% IFA) 21 DAT: 10 % IFA
  SEVERITY OF RUST (% IFA) 28 DAT: 18 % IFA
Phakopsora pachyrhizi [2]; Table 5: 200 g ac/ha
  SEVERITY OF RUST (% IFA) 7 DAT: 4 % IFA
  SEVERITY OF RUST (% IFA) 14 DAT: 7 % IFA
  SEVERITY OF RUST (% IFA) 21 DAT: 11 % IFA
  SEVERITY OF RUST (% IFA) 28 DAT: 11 % IFA
Phakopsora pachyrhizi [2]; Table 5: 300 g ac/ha
  SEVERITY OF RUST (% IFA) 7 DAT: 2 % IFA
  SEVERITY OF RUST (% IFA) 14 DAT: 0 % IFA
  SEVERITY OF RUST (% IFA) 21 DAT: 1 % IFA
  SEVERITY OF RUST (% IFA) 28 DAT: 5 % IFA
Phakopsora pachyrhizi [2]
  effective in controlling soybean rust: effective in controlling soybean rust

## CC[C@@H]([C@H](C)O)n1ncn(-c2ccc(N3CCN(c4ccc(OC[C@@H]5CO[C@](Cn6cncn6)(c6ccc(F)cc6F)C5)cc4)CC3)cc2)c1=O [Posaconazole, 1-((1S,2S)-1-ethyl-2-hydroxypropyl)-4-{4-[4-(4-{[(5S,3R)-5-(2,4-difluorophenyl)-5-(1,2,4-triazolylmethyll)oxolan-3-yl]methoxy}phenyl)pipera-zinyl]phenyl}-1,2,4-triazolin-5-one]
Phakopsora pachyrhizi [2]; Table 6: 50 g ac/ha
  SEVERITY OF RUST (% IFA) 7 DAT: 11 % IFA
  SEVERITY OF RUST (% IFA) 14 DAT: 13 % IFA
  SEVERITY OF RUST (% IFA) 21 DAT: 15 % IFA
  SEVERITY OF RUST (% IFA) 28 DAT: 14 % IFA
Phakopsora pachyrhizi [2]; Table 6: 100 g ac/ha
  SEVERITY OF RUST (% IFA) 7 DAT: 5 % IFA
  SEVERITY OF RUST (% IFA) 14 DAT: 8 % IFA
  SEVERITY OF RUST (% IFA) 21 DAT: 12 % IFA
  SEVERITY OF RUST (% IFA) 28 DAT: 13 % IFA
Phakopsora pachyrhizi [2]; Table 6: 150 g ac/ha
  SEVERITY OF RUST (% IFA) 7 DAT: 0 % IFA
  SEVERITY OF RUST (% IFA) 14 DAT: 6 % IFA
  SEVERITY OF RUST (% IFA) 21 DAT: 9 % IFA
  SEVERITY OF RUST (% IFA) 28 DAT: 12 % IFA
Phakopsora pachyrhizi [2]; Table 6: 200 g ac/ha
  SEVERITY OF RUST (% IFA) 7 DAT: 3 % IFA
  SEVERITY OF RUST (% IFA) 14 DAT: 0 % IFA
  SEVERITY OF RUST (% IFA) 21 DAT: 6 % IFA
  SEVERITY OF RUST (% IFA) 28 DAT: 9 % IFA
Phakopsora pachyrhizi [2]; Table 6: 300 g ac/ha
  SEVERITY OF RUST (% IFA) 7 DAT: 0 % IFA
  SEVERITY OF RUST (% IFA) 14 DAT: 0 % IFA
  SEVERITY OF RUST (% IFA) 21 DAT: 3 % IFA
  SEVERITY OF RUST (% IFA) 28 DAT: 7 % IFA
Phakopsora pachyrhizi [2]
  effective in controlling soybean rust: effective in controlling soybean rust

## C[C@@H](c1nc(-c2ccc(C#N)cc2)cs1)[C@](O)(Cn1cncn1)c1ccc(F)cc1F [Ravuconazole, 4-[2-[(1R,2R)-2-(2,4-difluor-phenyl)-2-hydroxy-1-methyl-3-(1H-1,2,4-triazol-1-yl)propyl]4-thiazolyl]-benzonitriyl]
Phakopsora pachyrhizi [2]; Table 4: 50 g ca/ha
  SEVERITY OF RUST (% IFA) 7 DAT: 15 % IFA
  SEVERITY OF RUST (% IFA) 14 DAT: 16 % IFA
  SEVERITY OF RUST (% IFA) 21 DAT: 16 % IFA
  SEVERITY OF RUST (% IFA) 28 DAT: 18 % IFA
Phakopsora pachyrhizi [2]; Table 4: 100 g ca/ha
  SEVERITY OF RUST (% IFA) 7 DAT: 12 % IFA
  SEVERITY OF RUST (% IFA) 14 DAT: 12 % IFA
  SEVERITY OF RUST (% IFA) 21 DAT: 14 % IFA
  SEVERITY OF RUST (% IFA) 28 DAT: 18 % IFA
Phakopsora pachyrhizi [2]; Table 4: 150 g ca/ha
  SEVERITY OF RUST (% IFA) 7 DAT: 9 % IFA
  SEVERITY OF RUST (% IFA) 14 DAT: 11 % IFA
  SEVERITY OF RUST (% IFA) 21 DAT: 11 % IFA
  SEVERITY OF RUST (% IFA) 28 DAT: 16 % IFA
Phakopsora pachyrhizi [2]; Table 4: 200 g ca/ha
  SEVERITY OF RUST (% IFA) 7 DAT: 3 % IFA
  SEVERITY OF RUST (% IFA) 14 DAT: 7 % IFA
  SEVERITY OF RUST (% IFA) 21 DAT: 11 % IFA
  SEVERITY OF RUST (% IFA) 28 DAT: 15 % IFA
Phakopsora pachyrhizi [2]; Table 4: 300 g ca/ha
  SEVERITY OF RUST (% IFA) 7 DAT: 2 % IFA
  SEVERITY OF RUST (% IFA) 14 DAT: 3 % IFA
  SEVERITY OF RUST (% IFA) 21 DAT: 9 % IFA
  SEVERITY OF RUST (% IFA) 28 DAT: 11 % IFA
Phakopsora pachyrhizi [2]
  effective in controlling soybean rust: effective
